The results in this text go back to the pKa sets of Baltruschat and Czodrowski (2020).

Each structure is given as a SMILES string.

In general, pKa refers to the negative logarithm of the acid dissociation constant. Low readings indicate a group that gives up its proton readily, high ones a group that holds its proton tightly.

Where the note is “basic group”, `Nc1ccc2cc([N+](=O)[O-])ccc2c1` returned a pKa of 2.9.
Where the note is “basic group”, `CCOC(=O)CC(c1ccccc1)N(C)C` (stereo unspecified) displayed a pKa of 7.66.
On the same count and under the same terms, the result for `NCCc1ccc(Br)cc1` reads 9.65.
Same read-out and setting: the same measure for `CC(=O)C(CCN1CCOCC1)(c1ccccc1)c1ccccc1`: 6.83; for `C[C@H]([NH3+])C(=O)N[C@@H](Cc1c[nH]cn1)C(=O)[O-]`: 6.76.
Consider `Nc1nc([O-])c2nc[nH]c2n1`, for which the pKa runs as follows: (acidic group) 12.6; (basic group) 9.3.
Turning to `CCCCCCCCCCCNCc1ccc(C)cc1`, the pKa (acidic group) is 9.46.
Same read-out and setting: the same measure for `O=C(O)C1(O)CCCCC1`: 4.18; for `C[C@H](C1CC1C(=O)O)[C@H]1CC[C@H]2[C@@H]3[C@@H](O)C[C@@H]4C[C@H](O)CC[C@]4(C)[C@H]3CC[C@]12C` (stereo partly specified): 5.01; for `O=[N+]([O-])c1ccc(B(O)O)cc1`: 7.15.
Same read-out and setting: the result for `O=C1CCON1` reads 6.7.
With `Nc1ccc(S(=O)(=O)Nc2ccncn2)cc1`, the pKa reads like this: (acidic group) 6.17; (basic group) 1.3.
For `Cc1cc(C)c(C)nn1`, the pKa (basic group) worked out at 4.81.
As for `O=[N+]([O-])c1ccccc1/C=N/O`, under “acidic group”, the pKa stood at 10.1.
In turn, `O=C1CSc2ncnc(N3CCOCC3)c2N1` had a pKa (acidic group) of 10.4 and a pKa (basic group) of 2.07.
Consider `NNCCc1ccccc1`, for which the pKa (basic group) was found to be 7.25.
As to `[NH3+]CCCCCCCCCC(=O)O`, the pKa (acidic group) amounted to 4.57.
For the molecule `CC(C)(C)N1C2CCCC21` (stereo unspecified), the pKa (basic group) is 9.22.
Still for that read-out and setting: the result for `CN(C)CCOC(C)(c1ccccc1)c1ccccc1` reads 8.75.
`CCc1c(C)nn(-c2ccccc2)c1O`: for the setting “acidic group”, the pKa came out at 11.5.
Under “acidic group”, `NS(=O)(=O)C(F)(F)Br` gave a pKa of 6.53.
Take `CCCOc1ccc(O)cc1`: under “acidic group”, the pKa amounted to 10.2.
In the case of `CSc1nc2ncncc2[nH]1`, the pKa came to 7.67 (acidic group) and 2.95 (basic group).
Take `O=NNc1nc([N+](=O)[O-])nn1-c1ccccc1`: the pKa (acidic group) was found to be 3.33.
Where the note is “acidic group”, `CCc1c(-c2ccccc2)n[nH]c1O` showed a pKa of 7.8.
Take `c1cnc2c(c1)ccc1cccnc12`: the pKa (basic group) was determined as 4.96.
On the same count and under the same terms, the result for `CC(C)NCCC#N` reads 8.
For `COc1nc([N+](=O)[O-])n[nH]1`, under “acidic group”, the pKa worked out at 5.35.
Consider `NOCc1ccc([N+](=O)[O-])cc1`, for which the pKa (basic group) is 3.96.
Still for that read-out and setting: the same measure for `CCOP(=O)(CN1CCOCC1)OCC`: 4; for `[O-]c1ncnc2cccnc12`: 8.95; for `CC1CCCN1C` (stereo unspecified): 10.2.
Molecule `O=C(NO)[C@@H]1[C@H](C(=O)NO)[C@@H]2CC[C@H]1O2` came in with a pKa (acidic group) of 9.3.
Still for that read-out and setting: the result for `Cc1cc(OS(=O)(=O)[O-])c2oc(-c3cc4ccc(O)cc4oc3=O)nc2c1` reads 6.8; that for `CC(C)C([NH2+]c1ccccc1)C(=O)O` (stereo unspecified), 4.4; that for `COc1ccc(S(N)(=O)=O)cc1`, 9.93.
`c1cc(C2CCCN2)nc(C2CCCN2)c1` (stereo unspecified) had a pKa (basic group) of 10.1.
In turn, `O=C(O)[C@@H]1O[C@H](Oc2ccc(-c3ccccc3)cc2)[C@@H](O)[C@H](O)[C@H]1O` had a pKa (acidic group) of 3.1.
The same measure, in the same setting: the result for `N#Cc1ccc(O[C@H]2O[C@@H](C(=O)O)[C@H](O)[C@@H](O)[C@@H]2O)cc1` reads 3.22.
The molecule `Oc1ccc2cc(Br)ccc2c1` yielded a pKa (acidic group) of 9.2.
Consider `O=C([O-])c1nc2cc(Cl)ccc2[nH]1`, for which, for the setting “basic group”, the pKa was determined as 4.3.
For the molecule `CC1CCC(O)(C(C(=O)O)c2ccc(-c3ccccc3)cc2)CC1` (stereo unspecified), where the note is “acidic group”, the pKa came to 3.45.
In turn, `CCC(C)(C)N(C)C(C)C` gave a pKa (basic group) of 11.2.
In turn, `CCOc1ccc(O)cc1` had a pKa (acidic group) of 10.2.
Same read-out and setting: the same measure for `O=C([O-])[C@@H](NCC[NH2+][C@@H](C(=O)[O-])c1ccccc1[O-])c1ccccc1O`: 10.8; for `CC/C=C/Cc1[nH+]ccn1[C@H](C(=O)O)C(C)(C)S`: 2.
For `CCCCCCCCCCCCNc1ccccc1`, the pKa (basic group) stood at 4.12.
Consider `Cn1c(=O)c2cn[nH]c2n(C)c1=O`, for which, for the setting “acidic group”, the pKa was 9.26.
Turning to `COc1cc(NS(C)(=O)=O)ccc1-c1cn2cccnc2n1`, the pKa (basic group) was determined as 4.17.
Take `CC1=C(CC(C)NCC(O)c2ccc(Cl)cc2)CCC1(C)C` (stereo unspecified): the pKa (basic group) came out at 8.55.
The same measure, in the same setting: the result for `CCN(CC)CCCCNc1ccnc2ccccc12` reads 10.2.
As for `CC1=CC(=O)C=C(C)C1=NO`, under “acidic group”, the pKa came to 8.04.
The molecule `CCOc1ccnc([O-])n1` registered a pKa (basic group) of 10.7.
The same measure, in the same setting: the result for `COC(=O)CN` reads 7.64.
Molecule `CC(C)CNC=S` displayed a pKa (acidic group) of 12.8.
On to `Cc1cc([O-])[nH+]c([S-])n1`, for which, for the setting “basic group”, the pKa turned out to be 7.73.
Molecule `Oc1ccc(-c2ccccc2)cc1` registered a pKa (acidic group) of 9.47.
On the same count and under the same terms, the result for `CC(C)(C)OOCCC(=O)O` reads 4.36.
In the case of `CC1=CC(C)=Nc2ccc(C)cc2N1`, the pKa is, setting by setting: (acidic group) 5.8; (basic group) 3.5.
Regarding `O=C(O)C#CCl`, where the note is “acidic group”, the pKa is 1.89.
As to `CN(C)c1cc[n+](O)cc1`, the pKa by setting is: (acidic group) 3.9; (basic group) -7.58.
The molecule `[O-]c1ncccn1` gave a pKa (basic group) of 9.17.
On the same count and under the same terms, the same measure for `Nc1ncc(-c2ccccc2)s1`: 4.9; for `Brc1cncc2ccccc12`: 3.54.
For the molecule `Cc1nsc(S)n1`, the pKa (acidic group) worked out at 5.18.
With `O=C1N[C@@H](Cc2cnc[nH]2)C(=O)N[C@H]1Cc1cnc[nH]1`, the pKa (basic group) came out at 6.54.
Where the note is “acidic group”, `O=C(O)CCCl` gave a pKa of 4.04.
The same measure, in the same setting: the result for `OC(O)c1ccccc1` reads 12.4.
In the case of `CC(C)CSCCN`, the pKa (basic group) amounted to 8.73.
On the same count and under the same terms, the result for `CCNc1nnc(-c2ccccc2)s1` reads 3.
`O=C(NCO)c1ccccc1` registered a pKa (acidic group) of 13.1.
Same read-out and setting: the result for `CCO/C(C)=N/O` reads 11.4.
Take `Cc1ccccc1/C(=N\CCC[NH+](C)C)c1ccccc1Cl`: for the setting “basic group”, the pKa turned out to be 3.37.
With `NC(=O)C1CN2CCC1CC2` (stereo unspecified), the pKa (acidic group) was 9.74.
For the setting “basic group”, `CCC1CN1CC` (stereo unspecified) gave a pKa of 8.19.
The same measure, in the same setting: the same measure for `CN1[C@@H]2C[C@@H]3C[C@H]1[C@@H](O)[C@H]2O3`: 8.2.
Regarding `N#CC(C#N)=C(Br)C(C#N)C#N`, the pKa (acidic group) turned out to be 2.6.
For `CC(=O)c1ccncc1`, the pKa (basic group) was 3.6.
Still for that read-out and setting: the same measure for `Cc1n[nH]c2c(NCc3ccccc3)ncnc12`: 4.95; for `C[NH+](C)CC(C)(C)CN`: 7.4; for `CC[NH+](CC)CCN`: 6.76.
The molecule `CCCCC([NH3+])C(=O)O` (stereo unspecified) yielded a pKa (acidic group) of 2.29.
For `CNc1ccc(C)cc1`, the pKa (basic group) stood at 5.36.
Same read-out and setting: the result for `COc1cc(S(C)=O)ccc1-c1nc2ccccc2[nH]1` (stereo unspecified) reads 4.76; that for `NCc1cccc(O)c1`, 9.06.
The molecule `CC(=O)c1ccc(S)cc1` came in with a pKa (acidic group) of 5.33.
Still for that read-out and setting: the result for `O=C(O)[C@@H]1O[C@H](Oc2ccc3ccc[nH+]c3c2)[C@@H](O)[C@H](O)[C@H]1O` reads 3; that for `S=C(S)N1CCCC1`, 2.97.
Still for that read-out and setting: the same measure for `O=C(O)[C@H]1C[C@@H]1c1cccc([N+](=O)[O-])c1`: 4.41.
Take `CN(c1ccccc1)C1CCCCC1`: the pKa (basic group) came to 6.35.
Same read-out and setting: the same measure for `COc1ccc(CN2CC(O[Si](C)(C)C)C2)cc1`: 8.17.
In the case of `Cc1cc(O)ccc1O`, the pKa (acidic group) was 10.1.
For `Cn1ccnc1-c1[nH+]ccn1C`, the pKa (basic group) was 0.5.
On the same count and under the same terms, the same measure for `Cc1ccc2nc3ccc(C)cc3cc2c1`: 4.5.
Turning to `O=P(O)(O)C([NH2+]Cc1cccc[nH+]1)c1ccccc1O` (stereo unspecified), the pKa (acidic group) was 2.25.
